Assay results as given in patent publication US20090163442A1, “TREATMENT OF CANCER WITH 2-DEOXYGALACTOSE” (priority 2007, published 2009).
Several values for one entry are separate records, joined by “and”; a condition that tells them apart may be missing. Equal values may be shown once.

Tests used:
[1] = tested on: tumor cell lines and types; details: Laszlo et al. 1958; cited from earlier work
[2] = tested on: tumor; details: cited from earlier work; for survival time / tumor growth: animal studies, Laszlo et al. 1960
[3] = tested on: hepatocellular carcinoma cell lines; assay: Sulforhodamine B (SRB) growth inhibition assay; format: cell-based, Human; details: continuous treatment 72 h
Experimental: The cells are cultured at 37 degrees C. in a humidified atmosphere containing 5% CO2. For passaging, cells grown in 75 cm2 flasks (6070% confluency) are washed with PBS and dissolved from the flasks with trypsin (Gibco BRL) before being plated. Ten thousand cells are plated into each well of a 96-well microtiter plate in 100 ul of medium. The cells are then incubated for 24 h at 37 degrees C. in a humidified atmosphere containing 5% CO2 prior to exposure to the 2-DG analog or other anti-cancer agent. Cultures are treated with a range of concentrations of 2-DGaI or a 2-DGaI analog solubilized in cell culture medium, diluted 100× to the desired concentration, continuously for 72 h. Docetaxel (Taxotere™, Aventis Pharmaceuticals, Inc.) solubilized in 100% DMSO and diluted 1000× to the desired concentration, is used as a positive control. The sulforhodamine B (SRB) assay, a dye-based method for determining cell number by virtue of SRB binding to basic amino acids of cellular macromolecules, is employed to assess the growth inhibitory activity of 2-DGal or a 2-DGal analog.

[4] = tested on: liver tumor serially passaged in nude mice; assay: Tumor growth delay study in a mouse xenograft model; format: in vivo; details: in combination with cisplatin (1 mg/kg i.p. days 1 to 5); 750 mg/kg orally twice daily; versus cisplatin alone
Source text: The efficacy of 2-DGaI or a 2-DGaI analog in combination with cisplatin can be compared with cisplatin alone in a tumor growth delay study in a mouse xenograft model. Small pieces of tumor, such as a liver tumor serially passaged in nude mice, are implanted subcutaneously in nude mice, and the tumors allowed to grow to 25 mm^2. Mice are then randomized to receive no treatment, treatment with 2-DGal or a 2-DGal analog alone, treatment with cisplatin alone, or treatment with both 2-DGal or a 2-DGaI analog and cisplatin. Cisplatin is dosed i.p. at 1 mg/kg on days 1 to 5.2-DGaI or a 2-DGaI analog is dosed orally at 750 mg/kg, twice daily, for the duration of the experiment. Each mouse is sacrificed when its tumor volume reaches 1000 mg.

[5] = tested on: CD 1 mice; assay: Liver toxicity study of 2-Fluoro-2-deoxygalactose, serum chemistry and clinical observations; format: in vivo; details: for Alt (alanine aminotransferase) / Ast (aspartate aminotransferase) / Tbili (total bilirubin): about 0.2 ml, male CD-1 mice, Day 2, individual animals
Experimental: The objective of this study was to evaluate the liver toxicity of 2-Fluoro-2-deoxygalactose when administered via intraperitoneal or intravenous injection to CD 1 mice. The study was initiated on Jan. 11, 2007, and consisted of three groups with three (3) male mice per group. On Day 1, each mouse GROUP was administered either about 0.2 ml of 10% 2 Fluoro 2 Deoxygalactose, intraperitoneally, about 0.2 ml of 10% 2 Fluoro 2 Deoxygalactose, intravenously, or about 0.2 ml of sterile 0.9% sodium chloride for injection, USP, intravenously. Criteria for evaluation included clinical observations and limited serum chemistry parameters (alanine aminotransferase [ALT], aspartate aminotransferase [AST], and total bilirubin). On Day 2, all animals were euthanized, blood was collected, and livers were collected and stored for potential histopathological evaluation.
Clinical observations were performed at least once daily.

[6] = tested on: normal liver tissue; assay: Uptake of 2-Fluoro-2-deoxygalactose by normal liver tissue

## O=CC[C@@H](O)[C@H](O)[C@H](O)CO [2-DG, 2-Deoxy-D-glucose, reference compound]
[1]
  inhibition of glycolysis: inhibit glycolysis
[2]; Sokoloff 1955, Ball 1957
  tumor growth in animal models: retard tumor growth
[2]
  survival time: modest prolongation of survival time
  tumor growth: inhibition of tumor growth

## O=CC[C@@H](O)[C@@H](O)[C@H](O)CO [2-DGal, 2-Deoxy-D-galactose]
[3]
  growth of hepatocellular carcinoma cell lines: inhibits the growth
[4]
  tumor growth delay: delays tumor growth significantly more than treatment with cisplatin alone
[1]
  inhibition of glycolysis: inhibit glycolysis
[2]
  survival time: modest prolongation of survival time
  tumor growth: inhibition of tumor growth
[2]; model systems of Laszlo et al. 1960
  efficacy relative to 2-DG: less efficacious

## O=C[C@H](F)[C@@H](O)[C@@H](O)[C@H](O)CO [2-Fluoro-2-deoxygalactose, 2-fluoro-2-deoxy-D-galactose]
[5]; CD1 mice, intraperitoneally
  concentration of transaminases: increases in concentration of transaminases
[5]; Group 2, 10% 2-Fluoro-2-deoxygalactose intraperitoneally
  Alt (alanine aminotransferase): 109 U/L and 73 U/L and 72 U/L
[5]; Group 2, 10% intraperitoneally
  Ast (aspartate aminotransferase): 234 U/L and 114 U/L and 118 U/L
  Tbili (total bilirubin): 0.2 mg/dL (2×) and 0.3 mg/dL
[5]; Group 3, 10% 2-Fluoro-2-deoxygalactose intravenously
  Alt (alanine aminotransferase): 45 U/L and 124 U/L and 30 U/L
[5]; Group 3, 10% intravenously
  Ast (aspartate aminotransferase): 112 U/L and 116 U/L and 52 U/L
  Tbili (total bilirubin): 0.2 mg/dL (2×) and 0.1 mg/dL
[5]; intraperitoneal administered group
  gross pathology finding: gross pathology finding of a single animal
[5]; intraperitoneal group, versus the two expected controls of Group 1
  rise in ALT and AST over normal animals: 2-3 ×
[5]; intraperitoneal or intravenous single injection, CD 1 mice
  unscheduled deaths: no unscheduled deaths
[5]; intraperitoneal or intravenous single injection, clinical observations at least once daily
  test article related clinical findings: no adverse test article related clinical findings
[5]; intravenous group, at 24 hours
  elevated enzymes (ALT, AST): one animal with elevated enzymes at 24 hours and two that has returned to normal

## O=C[C@H](O)[C@@H](O)[C@@H](O)[C@H](O)CO [galactose]
[6]
  inhibition of uptake of 2-Fluoro-2-deoxygalactose: markedly inhibits the uptake
